US8137700B2, “Main chain acid-degradable polymers for the delivery of bioactive materials” (U.S. Department of Energy, priority 2006, dated 2012)

Tested on: LacZ B3Z hybridoma
Assay: LacZ MHC Class I antigen presentation assay
Format: cell-based
Protocol: In one embodiment, particles prepared from these acid degradable epolymer backbones are designed to release their bioactive material payload into the cytoplasm of cells upon lysosomal destabilization. Higher loading capacity of the particles may also lead to greater antigen presentation of the encapsulated bioactive material. In the antigen presentation assay described by Sanderson, S.; Shastri, N. in Inter. Immun. 1994, 6, 369-376, the β-galactosidase activity of B3Z T cells is measured. Antigen presenting cells display the peptide having the sequence, […] (SEQ ID NO: 8), upon phagocytosis of ovalbumin. These cells are engineered to transcribe β-galactosidase when in the presence of antigen presenting cells displaying the […] peptide (SEQ ID NO: 8). β-galactosidase then liberates chlorophenol red from the chlorophenol red βgalactoside that is present in solution. Absorbance of chlorophenol red is measured by UV absorbance at 595 nm. Therefore this assay can be used as a measurement of the amount of bioactive material delivered into the cytoplasm of cells by the microgel particles of the invention by measuring the amount of liberated chlorophenol red by UV absorbance at 595 nm.
The LacZ MHC Class I antigen presentation assay, as described by the antigen Sanderson, S.; Shastri, N. in Inter. Immun. 1994, 6, 369-376, is performed with degradable polymer particles made according to Example 7 with the degradable polymers in Example 1 and 3 to test their ability to deliver proteins into APCs for Class I antigen presentation. This experiment uses the LacZ B3Z hybridoma, which is a CTL that recognizes the peptide sequence, […] (SEQ ID NO: 8), from ovalbumin, complexed with the MHC Class I molecule H-2 K^b. This hybridoma produces P-galactosidase after encountering APCs that present […] as a Class I antigen, thus allowing Class I antigen presentation to be quantified by measuring β-galactosidase activity.
A maximum absorbance of 0.25 is observed with the […] peptide (SEQ ID NO: 8), which results in 100% T-cell activation. At about 0.4 mg of particle/mL, degradable particles made as in Examples 1, should show an absorbance close to that of 0.25 at which 100% T-cell activation occurs.

| Substance | T-cell activation (at maximum absorbance) [%] | maximum absorbance (chlorophenol red, 595 nm) | U.V. absorbance resulting from activation (1 mg/ml of free ovalbumin) | activation of CTLs by APCs (APCs incubated with the substance) |
| --- | --- | --- | --- | --- |
| SIINFEKL | 100 | 0.25 |  |  |
| free ovalbumin: free ovalbumin protein, comparator |  |  | 0.037 | not able to activate CTLs |
